# Read-outs that look alike come from different tables or passages of the source.
# Key:
# [1] = Singlet oxygen production, cell free (SOG indicator fluorescence); type: physicochemical; set-up: unit not given here
# Experimental: (§1) The photosensitizers were diluted in phosphate buffer (pH=7.0)+100 mM NaCl or incomplete DMEM. The irradiation was performed in 96-well plates (100 uL working volume). Generation of singlet oxygen was measured by fluorescence signal of SOG indicator, generation of hydroxyl radical by fluorescence signal of HPF indicator. The signal presented is a result of subtraction of the signal in the presence of scavengers (NaN3 for singlet oxygen and DMTU for hydroxyl radical) from the total fluorescence signal.
# [2] = Hydroxyl radical production, cell free (HPF indicator fluorescence); type: physicochemical; set-up: unit not given here
# Experimental: as §1
# Mice = test: In vivo toxicity, maximum tolerated dose, i.p. escalating doses; set-up: species or system mouse; conditions: no transferrin
# Experimental: Mice were injected (i.p.) with escalating doses of the photosensitizers with and without transferrin.
# [3] = Photobleaching / absorbance stability; type: physicochemical; conditions: 525 nm laser; 0.8 mg/mL transferrin
# Experimental: Photobleaching was measured: (a) at wavelength in visible range maximal for each photosensitizer. This allows to estimate dynamics of amount of unbleached photosensitizer during irradiation; and (b) at 530, 635 and 808 nm. This allows estimating dynamics of unbleached photosensitizer available to exert PDT effect at these wavelengths as practically useful for PDT treatments.
# (§2) Photosensitizers (10 uM) were dissolved in phosphate buffer+100 mM NaCl (pH=7.0) alone or in a buffer with 0.8 mg/mL of transferrin at a total volume of 1 mL. The mixture was then exposed to a 525 nm laser source (130 mW) and the absorbance at the maximal absorbance in visible range (432 nm for TLD1433, 425 nm for TLD143310 and 562 nm for TLDOsH2dppn) was measured at specific time points. The plot represents the absorbance ratio (absorbance of exposed samples/absorbance of unexposed sample) as a function of the number of incident photons per cm^−2. Decreasing absorbance ratio signifies bleaching of the photosensitizer.
# as §2, with “530” for “the maximal absorbance in visible range (432”, “nm” for “nm for TLD1433, 425 nm for TLD143310 and 562 nm for TLDOsH2dppn)”
# as §2, with “635” for “the maximal absorbance in visible range (432”, “nm” for “nm for TLD1433, 425 nm for TLD143310 and 562 nm for TLDOsH2dppn)”, “photosensitizer. […]” for “photosensitizer.”
# [4] = 530 nm & 1092 J cm−2, incomplete DMEM, 0.8 mg/mL transferrin
# [5] = 530 nm & 1092 J cm−2, incomplete DMEM, 1.6 mg/mL transferrin
# [6] = 530 nm & 1092 J cm−2, incomplete DMEM, 3.2 mg/mL transferrin
# [7] = 530 nm & 1092 J cm−2, incomplete DMEM, no transferrin
# [8] = 530 nm & 1092 J cm−2, phosphate buffer, 0.8 mg/mL transferrin
# [9] = 530 nm & 1092 J cm−2, phosphate buffer, 1.6 mg/mL transferrin
# [10] = 530 nm & 1092 J cm−2, phosphate buffer, 3.2 mg/mL transferrin
# [11] = 530 nm & 1092 J cm−2, phosphate buffer, no transferrin
# [12] = 635 nm & 649 J cm−2, incomplete DMEM, 0.8 mg/mL transferrin
# [13] = 635 nm & 649 J cm−2, incomplete DMEM, 1.6 mg/mL transferrin
# [14] = 635 nm & 649 J cm−2, incomplete DMEM, 3.2 mg/mL transferrin
# [15] = 635 nm & 649 J cm−2, incomplete DMEM, no transferrin
# [16] = 635 nm & 649 J cm−2, phosphate buffer, 0.8 mg/mL transferrin
# [17] = 635 nm & 649 J cm−2, phosphate buffer, 1.6 mg/mL transferrin
# [18] = 635 nm & 649 J cm−2, phosphate buffer, 3.2 mg/mL transferrin
# [19] = 635 nm & 649 J cm−2, phosphate buffer, no transferrin
# [20] = 808 nm & 4000 J cm−2, incomplete DMEM, 0.8 mg/mL transferrin
# [21] = 808 nm & 4000 J cm−2, incomplete DMEM, 1.6 mg/mL transferrin
# [22] = 808 nm & 4000 J cm−2, incomplete DMEM, 3.2 mg/mL transferrin
# [23] = 808 nm & 4000 J cm−2, incomplete DMEM, no transferrin
# [24] = 808 nm & 4000 J cm−2, phosphate buffer, 0.8 mg/mL transferrin
# [25] = 808 nm & 4000 J cm−2, phosphate buffer, 1.6 mg/mL transferrin
# [26] = 808 nm & 4000 J cm−2, phosphate buffer, 3.2 mg/mL transferrin
# [27] = 808 nm & 4000 J cm−2, phosphate buffer, no transferrin
smiles,measurement,setting,value
[Os+2].c1ccc2cc3nc4c5cccnc5c5ncccc5c4nc3cc2c1.c1ccc2nc(-c3ccc4ccccc4n3)ccc2c1.c1ccc2nc(-c3ccc4ccccc4n3)ccc2c1 [TLDOsH2dppn],singlet oxygen production,[1]; [4],35127
same,singlet oxygen production,[1]; [5],43927
same,singlet oxygen production,[1]; [6],61734
same,singlet oxygen production,[1]; [7],36391
same,singlet oxygen production,[1]; [8],42816
same,singlet oxygen production,[1]; [9],56372
same,singlet oxygen production,[1]; [10],77219
same,singlet oxygen production,[1]; [11],25937
same,singlet oxygen production,[1]; [12],53931
same,singlet oxygen production,[1]; [13],75293
same,singlet oxygen production,[1]; [14],81807
same,singlet oxygen production,[1]; [15],15109
same,singlet oxygen production,[1]; [16],42837
same,singlet oxygen production,[1]; [17],51832
same,singlet oxygen production,[1]; [18],72938
same,singlet oxygen production,[1]; [19],10392
same,singlet oxygen production,[1]; [20],25384
same,singlet oxygen production,[1]; [21],55631
same,singlet oxygen production,[1]; [22],62804
same,singlet oxygen production,[1]; [23],11907
same,singlet oxygen production,[1]; [24],10000
same,singlet oxygen production,[1]; [25],30000
same,singlet oxygen production,[1]; [26],40000
same,singlet oxygen production,[1]; [27],8000
same,hydroxyl radical production,[2]; [4],70308
same,hydroxyl radical production,[2]; [5],132309
same,hydroxyl radical production,[2]; [6],164301
same,hydroxyl radical production,[2]; [7],32934
same,hydroxyl radical production,[2]; [8],41037
same,hydroxyl radical production,[2]; [9],83034
same,hydroxyl radical production,[2]; [10],120307
same,hydroxyl radical production,[2]; [11],25290
same,hydroxyl radical production,[2]; [12],32531
same,hydroxyl radical production,[2]; [13],42806
same,hydroxyl radical production,[2]; [14],73624
same,hydroxyl radical production,[2]; [15],12093
same,hydroxyl radical production,[2]; [16],25280
same,hydroxyl radical production,[2]; [17],45372
same,hydroxyl radical production,[2]; [18],72316
same,hydroxyl radical production,[2]; [19],8804
same,hydroxyl radical production,[2]; [20],42305
same,hydroxyl radical production,[2]; [21],77024
same,hydroxyl radical production,[2]; [22],102864
same,hydroxyl radical production,[2]; [23],14237
same,hydroxyl radical production,[2]; [24],13408
same,hydroxyl radical production,[2]; [25],20392
same,hydroxyl radical production,[2]; [26],56094
same,hydroxyl radical production,[2]; [27],8931
same,MTD Dose,Mice,50 mg/kg
same,"photobleaching, absorbance ratio at 530 nm",[3],bleaching of the photosensitizers was reduced
same,"photobleaching, absorbance ratio at 635 nm",[3],bleaching of the photosensitizers was reduced
same,"photobleaching, absorbance ratio at 808 nm",[3],bleaching of the photosensitizers was reduced
same,Therapeutic Ratio,"AY27 cells; 530 nm, 90 J cm−2, no transferrin",1639.8
same,Therapeutic Ratio,"AY27 cells; 530 nm, 90 J cm−2, transferrin",5531.9
same,Therapeutic Ratio,"AY27 cells; 650 nm, 90 J cm−2, no transferrin",28.7
same,Therapeutic Ratio,"AY27 cells; 650 nm, 90 J cm−2, transferrin",61.7
